Experimental data as given in ChEMBL document CHEMBL1240439, “Synthesis and docking studies of novel benzopyran-2-ones with anticancer activity” (2010).
Activity calls are given as the source filed them.

How the values were obtained:
Format in all cases: functional
SN12C = experiment: Cytotoxicity against human SN12C cells assessed as cell growth at 10 uM after 48 hrs by sulforhodamine B assay
EKVX = experiment: Cytotoxicity against human EKVX cells assessed as cell growth at 10 uM after 48 hrs by sulforhodamine B assay
RXF 393 = experiment: Cytotoxicity against human RXF393 cells assessed as cell growth at 10 uM after 48 hrs by sulforhodamine B assay
U-251 = experiment: Cytotoxicity against human U251 cells assessed as cell growth at 10 uM after 48 hrs by sulforhodamine B assay
NCI-H522 = experiment: Cytotoxicity against human NCI-H522 cells assessed as cell growth at 10 uM after 48 hrs by sulforhodamine B assay
PC-3 = experiment: Cytotoxicity against human PC3 cells assessed as cell growth at 10 uM after 48 hrs by sulforhodamine B assay
786-0 = experiment: Cytotoxicity against human 786-0 cells assessed as cell growth at 10 uM after 48 hrs by sulforhodamine B assay
SK-MEL-28 = experiment: Cytotoxicity against human SK-MEL-28 cells assessed as cell growth at 10 uM after 48 hrs by sulforhodamine B assay
HL-60(TB) = experiment: Cytotoxicity against human HL-60(TB) cells assessed as cell growth at 10 uM after 48 hrs by sulforhodamine B assay
COLO 205 = experiment: Cytotoxicity against human COLO205 cells assessed as cell growth at 10 uM after 48 hrs by sulforhodamine B assay
MCF7 = experiment: Cytotoxicity against human MCF7 cells assessed as cell growth at 10 uM after 48 hrs by sulforhodamine B assay
SK-MEL-5 = experiment: Cytotoxicity against human SK-MEL-5 cells assessed as cell growth at 10 uM after 48 hrs by sulforhodamine B assay
SW-620 = experiment: Cytotoxicity against human SW620 cells assessed as cell growth at 10 uM after 48 hrs by sulforhodamine B assay
SNB-19 = experiment: Cytotoxicity against human SNB19 cells assessed as cell growth at 10 uM after 48 hrs by sulforhodamine B assay
NCI-H23 = experiment: Cytotoxicity against human NCI-H23 cells assessed as cell growth at 10 uM after 48 hrs by sulforhodamine B assay
OVCAR-8 = experiment: Cytotoxicity against human OVCAR8 cells assessed as cell growth at 10 uM after 48 hrs by sulforhodamine B assay
CCRF-CEM = experiment: Cytotoxicity against human CCRF-CEM cells assessed as cell growth at 10 uM after 48 hrs by sulforhodamine B assay
SK-MEL-2 = experiment: Cytotoxicity against human SK-MEL-2 cells assessed as cell growth at 10 uM after 48 hrs by sulforhodamine B assay
Malme-3M = experiment: Cytotoxicity against human MALME-3M cells assessed as cell growth at 10 uM after 48 hrs by sulforhodamine B assay
OVCAR-3 = experiment: Cytotoxicity against human OVCAR-3 cells assessed as cell growth at 10 uM after 48 hrs by sulforhodamine B assay
Hs-578T = experiment: Cytotoxicity against human Hs 578T cells assessed as cell growth at 10 uM after 48 hrs by sulforhodamine B assay
A549 = experiment: Cytotoxicity against human A549 cells assessed as cell growth at 10 uM after 48 hrs by sulforhodamine B assay
M14 = experiment: Cytotoxicity against human M14 cells assessed as cell growth at 10 uM after 48 hrs by sulforhodamine B assay
HCC 2998 = experiment: Cytotoxicity against human HCC2998 cells assessed as cell growth at 10 uM after 48 hrs by sulforhodamine B assay
SK-OV-3 = experiment: Cytotoxicity against human SKOV3 cells assessed as cell growth at 10 uM after 48 hrs by sulforhodamine B assay
MDA-MB-468 = experiment: Cytotoxicity against human MDA-MB-468 cells assessed as cell growth at 10 uM after 48 hrs by sulforhodamine B assay
ACHN = experiment: Cytotoxicity against human ACHN cells assessed as cell growth at 10 uM after 48 hrs by sulforhodamine B assay
MDA-MB-435 = experiment: Cytotoxicity against human MDA-MB-435 cells assessed as cell growth at 10 uM after 48 hrs by sulforhodamine B assay
TK-10 = experiment: Cytotoxicity against human TK10 cells assessed as cell growth at 10 uM after 48 hrs by sulforhodamine B assay
NCI-H460 = experiment: Cytotoxicity against human NCI-H460 cells assessed as cell growth at 10 uM after 48 hrs by sulforhodamine B assay
UACC-62 = experiment: Cytotoxicity against human UACC62 cells assessed as cell growth at 10 uM after 48 hrs by sulforhodamine B assay
T47D = experiment: Cytotoxicity against human T47D cells assessed as cell growth at 10 uM after 48 hrs by sulforhodamine B assay
A498 = experiment: Cytotoxicity against human A498 cells assessed as cell growth at 10 uM after 48 hrs by sulforhodamine B assay
HCT-116 = experiment: Cytotoxicity against human HCT116 cells assessed as cell growth at 10 uM after 48 hrs by sulforhodamine B assay
UACC-257 = experiment: Cytotoxicity against human UACC257 cells assessed as cell growth at 10 uM after 48 hrs by sulforhodamine B assay
KM12 = experiment: Cytotoxicity against human KM12 cells assessed as cell growth at 10 uM after 48 hrs by sulforhodamine B assay
HT-29 = experiment: Cytotoxicity against human HT-29 cells assessed as cell growth at 10 uM after 48 hrs by sulforhodamine B assay
SNB-75 = experiment: Cytotoxicity against human SNB75 cells assessed as cell growth at 10 uM after 48 hrs by sulforhodamine B assay
MOLT-4 = experiment: Cytotoxicity against human MOLT4 cells assessed as cell growth at 10 uM after 48 hrs by sulforhodamine B assay
LOX IMVI = experiment: Cytotoxicity against human LOXIMVI cells assessed as cell growth at 10 uM after 48 hrs by sulforhodamine B assay
K562 = experiment: Cytotoxicity against human K562 cells assessed as cell growth at 10 uM after 48 hrs by sulforhodamine B assay
RPMI-8226 = experiment: Cytotoxicity against human RPMI8226 cells assessed as cell growth at 10 uM after 48 hrs by sulforhodamine B assay
HOP-92 = experiment: Cytotoxicity against human HOP92 cells assessed as cell growth at 10 uM after 48 hrs by sulforhodamine B assay
SR = experiment: Cytotoxicity against human SR cells assessed as cell growth at 10 uM after 48 hrs by sulforhodamine B assay
OVCAR-5 = experiment: Cytotoxicity against human OVCAR5 cells assessed as cell growth at 10 uM after 48 hrs by sulforhodamine B assay
BT-549 = experiment: Cytotoxicity against human BT549 cells assessed as cell growth at 10 uM after 48 hrs by sulforhodamine B assay
SF-539 = experiment: Cytotoxicity against human SF539 cells assessed as cell growth at 10 uM after 48 hrs by sulforhodamine B assay
NCI-H226 = experiment: Cytotoxicity against human NCI-H226 cells assessed as cell growth at 10 uM after 48 hrs by sulforhodamine B assay
SF-295 = experiment: Cytotoxicity against human SF295 cells assessed as cell growth at 10 uM after 48 hrs by sulforhodamine B assay
MDA-MB-231 = experiment: Cytotoxicity against human MDA-MB-231 cells assessed as cell growth at 10 uM after 48 hrs by sulforhodamine B assay
HCT-15 = experiment: Cytotoxicity against human HCT15 cells assessed as cell growth at 10 uM after 48 hrs by sulforhodamine B assay
SF-268 = experiment: Cytotoxicity against human SF268 cells assessed as cell growth at 10 uM after 48 hrs by sulforhodamine B assay
IGROV-1 = experiment: Cytotoxicity against human IGROV1 cells assessed as cell growth at 10 uM after 48 hrs by sulforhodamine B assay
DU-145 = experiment: Cytotoxicity against human DU145 cells assessed as cell growth at 10 uM after 48 hrs by sulforhodamine B assay
HOP-62 = experiment: Cytotoxicity against human HOP62 cells assessed as cell growth at 10 uM after 48 hrs by sulforhodamine B assay
OVCAR-4 = experiment: Cytotoxicity against human OVCAR4 cells assessed as cell growth at 10 uM after 48 hrs by sulforhodamine B assay
UO-31 = experiment: Cytotoxicity against human UO31 cells assessed as cell growth at 10 uM after 48 hrs by sulforhodamine B assay
NCI-H322M = experiment: Cytotoxicity against human NCI-H322M cells assessed as cell growth at 10 uM after 48 hrs by sulforhodamine B assay

Measured: Activity

CCCc1cc(=O)oc2cc(OCC(=O)n3nc(C)cc3C)ccc12
inactive: all assays above
